Two compounds from patent publication US11572398B2, “GLP-1 derivatives and uses thereof” (Novo Nordisk A/S, priority 2014, dated 2023) can be followed below.

Read-outs that look alike come from different tables or passages of the source.

One data set is described as follows: in vivo. To be noted: male, Göttingen, minipig, iv.
Another data set addresses T1, human GLP-1 receptor (Homo sapiens, UniProt P43220).
T1 construct: expressed in transfected cells; host or cells: BHK cells (parent line BHKTS13), clone FCW467-12A; membrane preparation
Briefly: GLP-1 receptor binding: competitive binding assay (125I-GLP-1, SPA) on isolated membranes at low and high HSA.

Setting [1] is: high HSA (2.0% final assay concentration), read-out: High HSA IC50.
Where [2] appears, read: low HSA (max. 0.001% final assay concentration), read-out: Low HSA IC50.

T1 sequence (P43220 24-463): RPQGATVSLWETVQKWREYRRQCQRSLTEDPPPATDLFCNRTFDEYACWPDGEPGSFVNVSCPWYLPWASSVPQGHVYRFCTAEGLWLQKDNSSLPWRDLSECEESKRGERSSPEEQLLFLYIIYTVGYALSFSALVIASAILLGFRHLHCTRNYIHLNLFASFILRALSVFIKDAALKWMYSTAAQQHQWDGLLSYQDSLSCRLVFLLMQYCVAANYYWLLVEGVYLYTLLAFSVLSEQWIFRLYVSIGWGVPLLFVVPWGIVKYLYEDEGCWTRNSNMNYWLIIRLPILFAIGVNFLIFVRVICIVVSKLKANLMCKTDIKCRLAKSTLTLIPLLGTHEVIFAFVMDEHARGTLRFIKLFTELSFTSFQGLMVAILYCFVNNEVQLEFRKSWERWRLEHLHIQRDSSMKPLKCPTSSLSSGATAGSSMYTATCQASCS
Method for in vivo: The purpose of this study is to determine the protraction in vivo of the GLP-1 derivatives after i.v. administration to minipigs, i.e. the prolongation of their time in the body and thereby their time of action. This is done in a pharmacokinetic (PK) study, where the terminal half-life of the derivative in question is determined. By terminal half-life is meant the time it takes to halve a certain plasma concentration in the terminal elimination phase.
Male Göttingen minipigs were obtained from Ellegaard Göttingen Minipigs (Dalmose, Denmark) approximately 7-14 months of age and weighing approximately 16-35 kg were used in the studies. The minipigs were housed either individually (pigs with permanent catheters) or in a group and fed restrictedly once or twice daily with SDS minipig diet (Special Diets Services, Essex, UK).
After at least 2 weeks of acclimatisation two permanent central venous catheters were implanted in vena cava caudalis or cranialis in each animal. The animals were allowed 1 week recovery after the surgery, and were then used for repeated pharmacokinetic studies with a suitable wash-out period between successive GLP-1 derivative dosings.
Blood samples (for example 0.8 ml) were collected in EDTA buffer (8 mM) and then centrifuged at 4° C. and 1942G for 10 minutes.
Plasma was pipetted into Micronic tubes on dry ice, and kept at −20° C. until analysed for plasma concentration of the respective GLP-1 compound using LOCI. Individual plasma concentration-time profiles were analyzed by a non-compartmental pharmacokinetic method in Phoenix v. 6.2 (Pharsight Inc., Mountain View, Calif., USA), or other relevant software for PK analysis, and the resulting terminal half-lives (harmonic mean) determined.

`CC[C@H](C)[C@H](NC(=O)[C@H](Cc1ccccc1)NC(=O)[C@H](CCC(=O)O)NC(=O)[C@H](CCCNC(=N)N)NC(=O)[C@H](C)NC(=O)[C@H](C)NC(=O)[C@H](CCC(N)=O)NC(=O)[C@H](CCC(=O)O)NC(=O)[C@H](CCC(=O)O)NC(=O)[C@H](CC(C)C)NC(=O)[C@H](Cc1ccc(O)cc1)NC(=O)[C@H](CO)NC(=O)[C@H](CO)NC(=O)[C@@H](NC(=O)[C@H](CC(=O)O)NC(=O)[C@H](CO)NC(=O)[C@@H](NC(=O)[C@H](Cc1ccccc1)NC(=O)[C@@H](NC(=O)CNC(=O)[C@H](CCC(=O)O)NC(=O)C(C)(C)NC(=O)[C@@H](N)Cc1c[nH]cn1)[C@@H](C)O)[C@@H](C)O)C(C)C)C(=O)N[C@@H](C)C(=O)N[C@@H](Cc1c[nH]c2ccccc12)C(=O)N[C@@H](CC(C)C)C(=O)N[C@H](C(=O)N[C@@H](CCCNC(=N)N)C(=O)NCC(=O)N[C@@H](CCCNC(=N)N)C(=O)N[C@@H](CCCCNC(=O)COCCOCCNC(=O)COCCOCCNC(=O)COCCOCCNC(=O)COCCOCCNC(=O)COCCOCCNC(=O)COCCOCCNC(=O)CN(CCCNC(=O)CC[C@H](NC(=O)CCCCCCCCCCCCCCCCCCC(=O)O)C(=O)O)CCCNC(=O)CC[C@H](NC(=O)CCCCCCCCCCCCCCCCCCC(=O)O)C(=O)O)C(=O)O)C(C)C` [Example 26, N{Epsilon-37}-[2-[2-[2-[[2-[2-[2-[[2-[2-[2-[[2-[2-[2-[[2-[2-[2-[[2-[2-[2-[[2-[bis[3-[[(4S)-4-carboxy-4-(19-carboxynonadecanoylamino)butanoyl]amino]propyl]amino]acetyl]amino]ethoxy]ethoxy]acetyl]amino]ethoxy]ethoxy]acetyl]amino]ethoxy]ethoxy]acetyl]amino]ethoxy]ethoxy]acetyl]amino]ethoxy]ethoxy]acetyl]amino]ethoxy]ethoxy]acetyl]-[Aib8,Glu22,Arg26,Arg34,Lys37]-GLP-1-(7-37)-peptide]: the half-life in the data set “in vivo” was 131 h. In addition, the results for the IC50 on human GLP-1 receptor (setting [1]) and on human GLP-1 receptor (setting [2]) were 29 nM and 0.36 nM, respectively.

Consider `CC[C@H](C)[C@H](NC(=O)[C@H](Cc1ccccc1)NC(=O)[C@H](CCC(=O)O)NC(=O)[C@H](CCCNC(=N)N)NC(=O)[C@H](C)NC(=O)[C@H](C)NC(=O)[C@H](CCC(N)=O)NC(=O)[C@H](CCC(=O)O)NC(=O)[C@H](CCC(=O)O)NC(=O)[C@H](CC(C)C)NC(=O)[C@H](Cc1ccc(O)cc1)NC(=O)[C@H](CO)NC(=O)[C@H](CO)NC(=O)[C@@H](NC(=O)[C@H](CC(=O)O)NC(=O)[C@H](CO)NC(=O)[C@@H](NC(=O)[C@H](Cc1ccccc1)NC(=O)[C@@H](NC(=O)CNC(=O)[C@H](CCC(=O)O)NC(=O)C(C)(C)NC(=O)[C@@H](N)Cc1c[nH]cn1)[C@@H](C)O)[C@@H](C)O)C(C)C)C(=O)N[C@@H](C)C(=O)N[C@@H](Cc1c[nH]c2ccccc12)C(=O)N[C@@H](CC(C)C)C(=O)N[C@H](C(=O)N[C@@H](CCCNC(=N)N)C(=O)NCC(=O)N[C@@H](CCCNC(=N)N)C(=O)N[C@@H](CCCCNC(=O)CN(CCCNC(=O)COCCOCCNC(=O)COCCOCCNC(=O)COCCOCCNC(=O)COCCOCCNC(=O)[C@@H](N)CCCCNC(=O)[C@@H](N)CCCCNC(=O)CCCCCCCCCCCCCCCCCCC(=O)O)CCCNC(=O)COCCOCCNC(=O)COCCOCCNC(=O)COCCOCCNC(=O)COCCOCCNC(=O)[C@@H](N)CCCCNC(=O)[C@@H](N)CCCCNC(=O)CCCCCCCCCCCCCCCCCCC(=O)O)C(=O)O)C(C)C` [Example 2, N{Epsilon-37}-[2-[bis[3-[[2-[2-[2-[[2-[2-[2-[[2-[2-[2-[[2-[2-[2-[[(2S)-2-amino-6-[[(2S)-2-amino-6-(19-carboxynonadecanoylamino)hexanoyl]amino]hexanoyl]amino]ethoxy]ethoxy]acetyl]amino]ethoxy]ethoxy]acetyl]amino]ethoxy]ethoxy]acetyl]amino]ethoxy]ethoxy]acetyl]amino]propyl]amino]acetyl]-[Aib8,Glu22,Arg26,Arg34,Lys37]-GLP-1-(7-37)-peptide], for which the half-life in the data set “in vivo” was 113 h. In addition, the IC50 at human GLP-1 receptor (setting [1]) was 11 nM; on human GLP-1 receptor (setting [2]), 0.19 nM.
